From patent EP4353088A1, “COMPOSITIONS OR COMBINED PREPARATIONS OF ESSENTIAL OILS AND L-CARNITINE” (Servicio Andaluz de Salud, priority 2022, dated 2024)

What was measured:
TMA and TMAO = assay: L-carnitine, TMA and TMAO levels in plasma (LC-MS) of humanized gnotobiotic mice; format: in vivo; settings: L-carnitine (0.02%, w/v) in drinking water for 40 days; carnitine group vs control group
Procedure: (§1) A humanized gnotobiotic mouse model was developed through the fecal microbiota transplantation of human feces into germ-free mice. Prior to the transplantation procedure, 18-week-old mice (n = 40) were orally treated by gavage with 200 µL of antibiotic cocktail composed of vancomycin (5 mg mL^-1), neomycin, metronidazole and ampicillin 155 (10 mg mL^-1) in order to deplete the bacterial content. An all-bacteria qPCR was performed with universal 16S rRNA primers that detect a broad range of bacterial species to verify complete absence of detectable bacteria in the feces.
(§2) Then, mice received a fecal microbiota transplantation from a selection of patients to recolonize the gastrointestinal tract, as previously described. Specifically, three patients with IHD, T2DM and high plasma levels of TMAO were eligible for feces donation. Fresh fecal samples were suspended in sterile phosphate buffered saline (PBS) and glycerol was added at 10 % (v/v) final concentration; then, samples were aliquoted into cryotubes and immediately stored at -80 °C. At the moment of the transplantation, aliquot samples from these patients were thawed in ice and mixed in equal quantities as a sample pool to guarantee that every mouse received a similar microbiota load. The sample pool was centrifuged for 2 minutes at 2,800 xg, and the supernatant was transferred to mice by oral gavage for three consecutive days according to previously published protocols. Mice were moved to clean cages every two days to minimize the coprophagia and to prevent reinoculation from old feces. […]

[1] = tested on: cardiovascular disease markers; assay: Cardiovascular markers in plasma (Mouse CVD Magnetic Bead Panel 1); format: in vivo, mice; settings: L-carnitine (0.02%, w/v) in drinking water for 40 days; carnitine group vs control group
Procedure: as §1
as §2, with “load.” for “load. The sample pool was centrifuged for 2 minutes at 2,800 xg, and the supernatant was transferred to mice by oral gavage for three consecutive days according to previously published protocols. Mice were moved to clean cages every two days to minimize the coprophagia and to prevent reinoculation from old feces.”

SCFA species = SCFA species in feces (GC-FID) of humanized gnotobiotic mice; format: in vivo; settings: L-carnitine (0.02%, w/v) in drinking water for 40 days; carnitine group vs control group
Procedure: as §1
as §2, with “load.” for “load. The sample pool was centrifuged for 2 minutes at 2,800 xg, and the supernatant was transferred to mice by oral gavage for three consecutive days according to previously published protocols. Mice were moved to clean cages every two days to minimize the coprophagia and to prevent reinoculation from old feces.”

[2] = tested on: protein carbonyls and pentosidine; assay: Protein carbonyls (AAS, GGS) and pentosidine in plasma (fluorescent HPLC); format: in vivo, mice; settings: L-carnitine (0.02%, w/v) in drinking water for 40 days; carnitine group vs control group
Procedure: as §1, §2

gut microbiota = assay: Fecal microbiota analysis by 16S rRNA gene sequencing in humanized gnotobiotic mice; format: in vivo
Procedure: as §2, with “A humanized gnotobiotic mouse model was developed through the fecal microbiota transplantation of human feces into germ-free mice. Prior to the transplantation procedure, 18-week-old mice (n = 40) were orally treated by gavage with 200 μL of antibiotic cocktail composed of vancomycin (5 mg mL^-1), neomycin, metronidazole and ampicillin 155 (10 mg mL^-1) in order to deplete the bacterial content. An all-bacteria qPCR was performed with universal 16S rRNA primers that detect a broad range of bacterial species to verify complete absence of detectable bacteria in the feces. Then,” for “Then,”

cytokines and chemokines = assay: Cytokines and chemokines in plasma (ProcartaPlex 26-Plex); format: in vivo, mice; settings: L-carnitine (0.02%, w/v) in drinking water for 40 days
Procedure: as §1
as §2, with “load.” for “load. The sample pool was centrifuged for 2 minutes at 2,800 xg, and the supernatant was transferred to mice by oral gavage for three consecutive days according to previously published protocols. Mice were moved to clean cages every two days to minimize the coprophagia and to prevent reinoculation from old feces.”

[3] = genus level, fecal samples, among control, carnitine, savory, parsley and rosemary groups, 40 days

C[N+](C)(C)C[C@H](O)CC(=O)[O-] [carnitine, L-carnitine]
plasma L-carnitine levels (TMA and TMAO): significant increase | plasma TMA levels (TMA and TMAO): significant increase | plasma TMAO levels (TMA and TMAO): no significant differences | plasma cardiovascular disease markers (Se-selectin, sICAM-1, Precam-1, sP-selectin, PAI-1 and thrombomodulin) [1]: no significant differences | fecal levels of SCFA species (acetic, butyric and propionic acids) (SCFA species): no significant differences | plasma levels of AAS [2]: no significant effects | plasma levels of GGS [2]: no significant effects | plasma pentosidine levels [2]: no differences | relative abundance at the family and genus levels (gut microbiota; L-carnitine (0.02%, w/v) in drinking water for 40 days, carnitine group vs control group): no differences | Chao1 index (alpha diversity) (gut microbiota; [3]): no significant differences | Shannon index (alpha diversity) (gut microbiota; [3]): no significant differences | plasma IFNγ levels (cytokines and chemokines; carnitine group vs control group): significant increase | plasma CXCL10 levels (cytokines and chemokines; vs control group): significant increase
